Assay results published in ChEMBL document CHEMBL1857833, “Screening and optimization of specific chemical series against human African Trypanosomiasis (HAT)”.
≈ marks a conversion by molar mass, not a printed value. Where “and” joins values, the source holds several entries; their conditions need not be identical. Equal values may be shown once.

Experiments:
in vitro = details: mouse, liver microsomes, t (1 / 2)
Description: DNDI: half life in mouse liver microsomes at a concentration of 1uM

[1] = mouse, microsomes, 1 µM
Description: DNDI: in vitro intrinsic clearance in mouse liver microsomes at a concentration of 1uM

Trypanosoma brucei = experiment: DNDI: Inhibition of Human African Trypanosomiasis, SBRI 427, in vitro; assay type: functional, organism-based
[2] = DNDI: Cytotoxicity against L929 mouse fibroblasts, CYTO-SP, 24 hour; assay type: toxicity, cell-based; details: mouse, L929 mouse fibroblasts
[3] = DNDI: Solubility in phosphate buffered saline at pH7.4 measured by nephelometry at room temperature (NEPH-RT); assay type: physicochemical; details: pH 7.4
[4] = DNDI: Cytotoxicity against L929 mouse fibroblasts, 72 hour.; assay type: toxicity, cell-based; details: mouse, L929 mouse fibroblasts
[5] = DNDI: Lipophilicity measured in Chromatographic hydrophobicity index (CHI) assay, pH 7.4; assay type: physicochemical; details: buffer
[6] = Trypanosoma brucei, SBRI 427, read-out: IC50

half-life at 1 µM (in vitro) | CLint in vitro [1] | IC50 (Trypanosoma brucei; [6]) | solubility kinetic [3] | chromatographic logD [5] | IC50 (Trypanosoma brucei) | Compound | IC50 at 24 h [2] | IC50 at 72 h [4]
2 min | 376 µL/min/mg | > 5 µg/mL | – | – | – | COc1ccc(N/C(=N/O)c2ccc(OC)cc2)cc1 | > 50 µg/mL | –
24 min | 36 µL/min/mg | 0.6 µg/mL (≈ 1.91 µM) | 3 µM (≈ 0.943 µg/mL) | – | – | CCCCCC(C)NCc1coc(-c2ccc(C(C)C)cc2)n1 (centres undefined) | – | 1.33 µg/mL (≈ 4.23 µM)
– | – | 2.46 µg/mL (≈ 5.89 µM) | 25 µM (≈ 10.4 µg/mL) | 4.84 | – | CCN(CC)CCCNc1cc(-c2ccccc2)nc2cc(-c3ccc(F)cc3)nn12 | – | 3.05 µg/mL (≈ 7.3 µM)
– | – | 0.55 µg/mL (≈ 1.75 µM) | > 200 µM | 3.3 | – | Cc1cccc(-c2nc(CNCCC3CCCN3C)c(C)o2)c1 (centres undefined) | – | 9.29 µg/mL (≈ 29.6 µM)
2 min | 397 µL/min/mg | > 5 µg/mL | – | – | – | CCc1ccccc1N/C(=N\O)c1ccc(OC)cc1 | > 50 µg/mL | –
2 min | 351 µL/min/mg | 0.46 µg/mL (≈ 1.32 µM) | – | – | 0.48 µg/mL (≈ 1.38 µM) | O/N=C(\NC1CCCCC1)c1cccnc1Oc1c(F)cccc1F | > 50 µg/mL | > 10 µg/mL
4 min | 209 µL/min/mg | > 5 µg/mL | – | – | – | CCc1ccccc1N/C(=N\O)c1ccccc1-c1ccccc1 | 16.3 µg/mL (≈ 51.5 µM) | –
97 min | 9 µL/min/mg | 0.55 µg/mL (≈ 1.45 µM) | 1 µM (≈ 0.379 µg/mL) | – | – | CCCCCC(C)NCc1coc(-c2ccc(OCc3ccccc3)cc2)n1 (centres undefined) | – | 1.41 µg/mL (≈ 3.73 µM)
– | – | 4.86 µg/mL (≈ 10.7 µM) | 6 µM (≈ 2.72 µg/mL) | – | – | Cc1ccc(CNC(c2ccccc2)c2nc(Cc3ccccc3)c(N3CCOCC3)o2)cc1 (centres undefined) | – | > 10 µg/mL
7 min | 128 µL/min/mg | 3.58 µg/mL (≈ 14.5 µM) | – | – | – | CCc1ccccc1/C(=N\O)NC1CCCCC1 | > 50 µg/mL | –
– | – | > 5 µg/mL | 50 µM (≈ 13.4 µg/mL) | 2.41 | – | COc1ccc(/C(=N/O)Nc2cccc(C#N)c2)cc1 | – | > 10 µg/mL
– | – | > 5 µg/mL | 6 µM (≈ 2.58 µg/mL) | 4.77 | – | O=C1CCCN1CCCNc1cc(-c2ccccc2)nc2cc(-c3ccc(F)cc3)nn12 | – | > 10 µg/mL
20 min | 42 µL/min/mg | 1.57 µg/mL (≈ 4.36 µM) | – | – | – | CCCCCC(C)NCc1coc(-c2ccc(OCCOCC)cc2)n1 (centres undefined) | – | 5.78 µg/mL (≈ 16 µM)
3 min | 307 µL/min/mg | > 5 µg/mL | 6 µM (≈ 2.59 µg/mL) | – | – | CC(C)CNC(CCc1ccccc1)c1nc(Cc2ccccc2)c(N2CCCCC2)o1 (centres undefined) | – | > 10 µg/mL
17 min | 50 µL/min/mg | 2.22 µg/mL (≈ 8.15 µM) | – | – | – | CCCCc1ccc(-c2nc(CNC(C)C)co2)cc1 | – | 5.7 µg/mL (≈ 20.9 µM)
– | – | – | 1 µM (≈ 0.38 µg/mL) | – | 1.43 µg/mL and 0.89 µg/mL and 2.17 µg/mL | COc1cccc(OC)c1CNCc1coc(-c2ccc(C(C)(C)C)cc2)n1 | 43.2 µg/mL (≈ 114 µM) | 2.07 µg/mL (≈ 5.44 µM)
– | – | > 5 µg/mL | > 200 µM | 4.54 | – | CCC(C)C1C(=O)CC(=O)N1C(=O)OC(C)(C)C (centres undefined) | – | > 10 µg/mL
34 min | 25 µL/min/mg | 1.29 µg/mL (≈ 3.27 µM) | – | – | – | CCCCCC(C)NCc1coc(-c2ccc(Oc3ccc(OC)cc3)cc2)n1 (centres undefined) | – | 5.61 µg/mL (≈ 14.2 µM)
2 min | 440 µL/min/mg | 4.06 µg/mL (≈ 9.32 µM) | 6 µM (≈ 2.61 µg/mL) | – | – | CCC(C)C(NCc1ccccc1OC)c1nc(-c2ccccc2)c(N2CCOCC2)o1 (centres undefined) | – | > 10 µg/mL
– | – | 0.43 µg/mL (≈ 1.37 µM) | > 200 µM | 3.3 | – | Cc1ccc(-c2nc(CNCCC3CCCN3C)c(C)o2)cc1 (centres undefined) | – | 7.78 µg/mL (≈ 24.8 µM)
7 min | 116 µL/min/mg | > 5 µg/mL | – | – | – | O=C(NC1CCCCC1)c1ccccc1-c1ccccc1 | > 50 µg/mL | –
5 min | 166 µL/min/mg | > 5 µg/mL | – | – | – | COc1ccc(N/C(=N/O)c2ccccc2-c2ccccc2)cc1 | > 50 µg/mL | –
78 min | 11 µL/min/mg | 0.43 µg/mL (≈ 1.17 µM) | – | – | – | c1cc(-c2nc(CNC3CCCCCC3)co2)ccc1OC1CCCCC1 | – | 1.29 µg/mL (≈ 3.5 µM)
27 min | 31 µL/min/mg | 0.54 µg/mL (≈ 1.63 µM) | – | – | – | CCCCCC(C)NCc1coc(-c2ccc(OCCC)cc2)n1 (centres undefined) | 27.5 µg/mL (≈ 83.4 µM) | < 3.13 µg/mL
– | – | 4.53 µg/mL (≈ 9.61 µM) | 6 µM (≈ 2.83 µg/mL) | – | – | FC(F)(F)c1ccc(CNC(c2nc(Cc3ccccc3)c(N3CCOCC3)o2)C2CC2)cc1 (centres undefined) | – | > 10 µg/mL
– | – | > 5 µg/mL | > 200 µM | 2.34 | – | CN1CC(OC(=O)c2ccccc2)=CC1=O | – | > 10 µg/mL
